Measurements reported in US9688710B2, “Inhibitors of sodium glucose cotransporter 1” (LEXICON PHARMACEUTICALS, INC., priority 2012, dated 2017).

How the values were obtained:
[1] = biological target: Human sodium/glucose co-transporter type 1 (SGLT1) (Homo sapiens (Human), UniProt P13866); assay: In vitro human SGLT1 inhibition assay (14C-AMG uptake); type: cell-based; parameters: key to SGLT1 (human SGLT1 IC50): ***: a value less than 0.01 μM; **: a value less than 0.1 μM; *: a value less than 1 μM; —: a value not measured or exceeding μM; details: HEK293 cells expressing human HA-SGLT1, 14C-AMG uptake
Sequence of Human sodium/glucose co-transporter type 1 (SGLT1) (P13866 whole entry): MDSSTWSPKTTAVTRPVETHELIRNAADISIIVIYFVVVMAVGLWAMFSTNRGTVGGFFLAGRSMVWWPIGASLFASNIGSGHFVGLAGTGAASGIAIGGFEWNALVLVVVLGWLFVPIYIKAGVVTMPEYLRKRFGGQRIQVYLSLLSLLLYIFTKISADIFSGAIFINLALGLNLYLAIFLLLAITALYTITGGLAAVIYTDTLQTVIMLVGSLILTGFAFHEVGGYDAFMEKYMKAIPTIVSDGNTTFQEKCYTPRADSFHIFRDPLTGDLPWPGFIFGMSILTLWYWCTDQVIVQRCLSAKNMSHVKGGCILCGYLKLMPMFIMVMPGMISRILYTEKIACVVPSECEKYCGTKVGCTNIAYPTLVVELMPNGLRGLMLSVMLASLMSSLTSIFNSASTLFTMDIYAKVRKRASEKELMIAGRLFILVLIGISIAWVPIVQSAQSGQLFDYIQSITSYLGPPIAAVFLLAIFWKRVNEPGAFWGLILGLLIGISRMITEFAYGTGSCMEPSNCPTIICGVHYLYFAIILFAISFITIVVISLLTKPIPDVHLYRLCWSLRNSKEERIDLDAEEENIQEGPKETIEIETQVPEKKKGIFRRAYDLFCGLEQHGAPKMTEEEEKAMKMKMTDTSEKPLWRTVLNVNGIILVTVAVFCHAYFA
Procedure, shortened: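 HEK293 cells stably expressing human HA-tagged SGLT1 (30,000/well, overnight) were washed into Na+-containing uptake buffer (140 mM NaCl, HEPES/Tris, 1 mg/mL BSA, pH 7.3). Cells then received compound plus 100 nCi 14C-AMG for 1–2 h at 37 °C; after washing, AMG uptake was quantified by scintillation counting.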

[2] = biological target: Human sodium/glucose co-transporter type 2 (SGLT2) (Homo sapiens (Human), UniProt P31639); assay: In vitro human SGLT2 inhibition assay (14C-AMG uptake); type: cell-based; details: HEK293 cells expressing human HA-SGLT2, 14C-AMG uptake
Sequence of Human sodium/glucose co-transporter type 2 (SGLT2) (P31639 whole entry): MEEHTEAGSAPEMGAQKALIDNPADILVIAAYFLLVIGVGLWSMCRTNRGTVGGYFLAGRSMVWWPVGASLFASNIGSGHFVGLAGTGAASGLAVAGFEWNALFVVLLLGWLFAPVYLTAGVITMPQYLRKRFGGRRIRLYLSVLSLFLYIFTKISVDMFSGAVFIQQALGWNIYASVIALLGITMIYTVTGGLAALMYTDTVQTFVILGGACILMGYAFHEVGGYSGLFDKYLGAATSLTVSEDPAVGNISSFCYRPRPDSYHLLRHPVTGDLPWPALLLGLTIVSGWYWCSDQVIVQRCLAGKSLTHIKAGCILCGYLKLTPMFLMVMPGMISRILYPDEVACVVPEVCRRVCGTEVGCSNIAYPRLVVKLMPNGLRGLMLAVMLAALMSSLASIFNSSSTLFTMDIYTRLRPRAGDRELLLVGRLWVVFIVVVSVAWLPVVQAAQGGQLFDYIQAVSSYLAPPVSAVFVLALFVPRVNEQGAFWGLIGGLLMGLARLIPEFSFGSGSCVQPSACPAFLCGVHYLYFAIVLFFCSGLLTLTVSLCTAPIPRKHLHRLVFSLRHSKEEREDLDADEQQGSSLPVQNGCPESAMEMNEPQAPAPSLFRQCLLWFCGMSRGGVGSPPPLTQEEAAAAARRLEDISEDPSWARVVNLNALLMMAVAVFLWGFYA
Procedure, shortened: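 HEK293 cells stably expressing HA-tagged human SGLT2, seeded overnight, washed into Na+-containing HEPES/Tris uptake buffer with 1 mg/mL BSA, pH 7.3. Compound added, then 14C-AMG (100 nCi); 1-2 h at 37 °C, 5% CO2. Washed cells counted by scintillation for 14C-AMG uptake.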

Compound | IC50 [1] [nM] | IC50 [2] [nM] | SGLT1 (human SGLT1 IC50) [1]
CS[C@H]1O[C@@H](c2ccc(C)c(Cc3ccc(CCCCCNC(=O)NC(C)(C)C(N)=O)cc3)c2)[C@H](O)[C@@H](O)[C@@H]1O [2-methyl-2-(3-(5-(4-(2-methyl-5-((2S,3R,4R,5S,6R)-3,4,5-trihydroxy-6-(methylthio)tetrahydro-2H-pyran-2-yl)benzyl)phenyl)pentyl)ureido)propanamide] | < 100 | < 10 | 
CS[C@H]1OC(c2ccc(C)c(Cc3ccc(OCCCNC(C)(CO)CO)cc3)c2)[C@H](O)[C@@H](O)[C@@H]1O (stereo partly drawn) [(3R,4R,5S,6R)-2-(3-(4-(3-((1,3-dihydroxy-2-methylpropan-2-yl)amino)propoxy)benzyl)-4-methylphenyl)-6-(methylthio)tetrahydro-2H-pyran-3,4,5-triol] | < 10 | < 10 | 
CS[C@H]1O[C@@H](c2ccc(C)c(Cc3ccc(CCCC(=O)NCC(C)(C)C(=O)N4CCN(C)CC4)cc3)c2)[C@H](O)[C@@H](O)[C@@H]1O [N-(2,2-dimethyl-3-(4-methylpiperazin-1-yl)-3-oxopropyl)-4-(4-(2-methyl-5-((2S,3R,4R,5S,6R)-3,4,5-trihydroxy-6-(methylthio)tetrahydro-2H-pyran-2-yl)benzyl)phenyl)butanamide] | < 10 | < 10 | 
CS[C@H]1OC(c2ccc(C)c(Cc3ccc(OCCCNC4(C(N)=O)CCCC4)cc3)c2)[C@H](O)[C@@H](O)[C@@H]1O (stereo partly drawn) [1-((3-(4-(2-methyl-5-((3R,4R,5S,6R)-3,4,5-trihydroxy-6-(methylthio)tetrahydro-2H-pyran-2-yl)benzyl)phenoxy)propyl)amino)cyclopentanecarboxamide] | < 10 | < 10 | 
CS[C@H]1O[C@@H](c2ccc(Cl)c(Cc3ccc(OCCCC(=O)NC(C)(C)CO)cc3)c2)[C@H](O)[C@@H](O)[C@@H]1O [4-(4-(2-chloro-5-((2S,3R,4R,5S,6R)-3,4,5-trihydroxy-6-(methylthio)tetrahydro-2H-pyran-2-yl)benzyl)phenoxy)-N-(1-hydroxy-2-methylpropan-2-yl)butanamide] | < 10 | < 10 | 
CS[C@H]1O[C@@H](c2ccc(C)c(Cc3ccc(OCCCNCC(C)(C)CN(C)C)cc3)c2)[C@H](O)[C@@H](O)[C@@H]1O [(2S,3R,4R,5S,6R)-2-(3-(4-(3-((3-(dimethylamino)-2,2-dimethylpropyl)amino)propoxy)benzyl)-4-methylphenyl)-6-(methylthio)tetrahydro-2H-pyran-3,4,5-triol] | < 10 | < 10 | 
CS[C@H]1O[C@@H](c2ccc(Cl)c(Cc3ccc(OCCCC(=O)N[C@@H](CO)C(N)=O)cc3)c2)[C@H](O)[C@@H](O)[C@@H]1O [N-((S)-1-amino-3-hydroxy-1-oxopropan-2-yl)-4-(4-(2-chloro-5-((2S,3R,4R,5S,6R)-3,4,5-trihydroxy-6-(methylthio)tetrahydro-2H-pyran-2-yl)benzyl)phenoxy)butanamide] | < 100 | < 10 | 
CS[C@H]1O[C@@H](c2ccc(C)c(Cc3ccc(CCCCNC(=N)N)cc3)c2)[C@H](O)[C@@H](O)[C@@H]1O [1-(4-(4-(2-methyl-5-((2S,3R,4R,5S,6R)-3,4,5-trihydroxy-6-(methylthio)tetrahydro-2H-pyran-2-yl)benzyl)phenyl)butyl)guanidine] | < 10 | < 10 | 
CS[C@H]1O[C@@H](c2ccc(C)c(Cc3ccc(CCC[C@H](N)C(=O)O)cc3)c2)[C@H](O)[C@@H](O)[C@@H]1O [(S)-2-amino-5-(4-(2-methyl-5-((2S,3R,4R,5S,6R)-3,4,5-trihydroxy-6-(methylthio)tetrahydro-2H-pyran-2-yl)benzyl)phenyl)pentanoic acid] |  | < 100 | —
CS[C@H]1O[C@@H](c2ccc(C)c(Cc3ccc(CCCCCC(=O)NC(CO)(CO)CO)cc3)c2)[C@H](O)[C@@H](O)[C@@H]1O [N-(1,3-dihydroxy-2-(hydroxymethyl)propan-2-yl)-6-(4-(2-methyl-5-((2S,3R,4R,5S,6R)-3,4,5-trihydroxy-6-(methylthio)tetrahydro-2H-pyran-2-yl)benzyl)phenyl)hexanamide] | < 100 | < 10 | 
CS[C@H]1O[C@@H](c2ccc(C)c(Cc3ccc(CCCC(=O)NC(C)(C)C(=O)N4CCC(NC(=O)OC(C)(C)C)CC4)cc3)c2)[C@H](O)[C@@H](O)[C@@H]1O [tert-butyl (1-(2-methyl-2-(4-(4-(2-methyl-5-((2S,3R,4R,5S,6R)-3,4,5-trihydroxy-6-(methylthio)tetrahydro-2H-pyran-2-yl)benzyl)phenyl)butanamido)propanoyl)piperidin-4-yl)carbamate] | < 10 | < 10 | 
CS[C@H]1O[C@@H](c2ccc(C)c(Cc3ccc(OCCCC(=O)N[C@@H](CC(N)=O)C(N)=O)cc3)c2)[C@H](O)[C@@H](O)[C@@H]1O [(S)-2-(4-(4-(2-methyl-5-((2S,3R,4R,5S,6R)-3,4,5-trihydroxy-6-(methylthio)tetrahydro-2H-pyran-2-yl)benzyl)phenoxy)butanamido)succinamide] | < 100 | < 10 | 
CS[C@H]1O[C@@H](c2ccc(C)c(Cc3ccc(CCCCNC(=O)NC(C)(C)CO)cc3)c2)[C@H](O)[C@@H](O)[C@@H]1O [1-(1-hydroxy-2-methylpropan-2-yl)-3-(4-(4-(2-methyl-5-((2S,3R,4R,5S,6R)-3,4,5-trihydroxy-6-(methylthio)tetrahydro-2H-pyran-2-yl)benzyl)phenyl)butyl)urea] | < 100 | < 10 | 
CS[C@H]1O[C@@H](c2ccc(C)c(Cc3ccc(OCC(=O)NC(CO)(CO)CO)cc3)c2)[C@H](O)[C@@H](O)[C@@H]1O [N-(1,3-dihydroxy-2-(hydroxymethyl)propan-2-yl)-2-(4-(2-methyl-5-((2S,3R,4R,5S,6R)-3,4,5-trihydroxy-6-(methylthio)tetrahydro-2H-pyran-2-yl)benzyl)phenoxy)acetamide] | < 100 | < 10 | 
CS[C@H]1O[C@@H](c2ccc(C)c(Cc3ccc(CCCC(=O)NCCCN(C)CCCNC(=O)CCCc4ccc(Cc5cc([C@@H]6O[C@H](SC)[C@@H](O)[C@H](O)[C@H]6O)ccc5C)cc4)cc3)c2)[C@H](O)[C@@H](O)[C@@H]1O [(S,R,S,R,R)-N,N′-((methylazanediyl)bis(propane-3,1-diyl))bis(4-(4-(2-methyl-5-((2S,3R,4R,5S,6R)-3,4,5-trihydroxy-6-(methylthio)tetrahydro-2H-pyran-2-yl)benzyl)phenyl)butanamide)] | < 10 | < 10 | 
CSC1OC(c2ccc(C)c(Cc3ccc(CCCC(=O)N4CCN(CCCN5CCN(C(=O)CCCc6ccc(Cc7cc(C8OC(SC)C(O)C(O)C8O)ccc7C)cc6)CC5)CC4)cc3)c2)C(O)C(O)C1O [(S,R,S,R,R)-1,1′-(4,4′-(propane-1,3-diyl)bis(piperazine-4,1-diyl))bis(4-(4-(2-methyl-5-((2S,3R,4R,5S,6R)-3,4,5-trihydroxy-6-(methylthio)tetrahydro-2H-pyran-2-yl)benzyl)phenyl)butan-1-one)] | < 10 | < 10 | 
CS[C@H]1O[C@@H](c2ccc(Cl)c(Cc3ccc(OCC(=O)NC(C)(C)C(N)=O)cc3)c2)[C@H](O)[C@@H](O)[C@@H]1O [2-(2-(4-(2-chloro-5-((2S,3R,4R,5S,6R)-3,4,5-trihydroxy-6-(methylthio)tetrahydro-2H-pyran-2-yl)benzyl)phenoxy)acetamido)-2-methylpropanamide] | < 100 | < 10 | 
